Assay results from patent US20240041042A1, “1-(PYRIDYL)-5-AZINYLPYRAZOLE DERIVATIVES, AND THEIR USE FOR CONTROL OF UNDESIRED PLANT GROWTH” (Bayer Aktiengesellschaft, priority 2020, published 2024).
Like-named read-outs stand apart in the source and are kept apart here.

How the values were obtained:
Type in all cases: in vivo
[1] = tested on: Triticum aestivum (TRZAS); conditions: crop plant compatibility; for Pre-emergence action against TRZAS: 20 g/ha, effect vs untreated controls
In short: (§1)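 Scoring: visual, % of untreated control, about 3 weeks after a pre-emergence application to the soil surface. Application used WP or EC formulations diluted in water with 0.5% additive at 600 l/ha; dosage levels are marked by suffixes a, b and c.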

Glycine max (GLXMA) = conditions: 20 g/ha; crop plant compatibility, effect vs untreated controls
In short: as §1

[2] = tested on: Triticum aestivum (TRZAS); conditions: crop plant compatibility, effect vs untreated controls
In short: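 Greenhouse crops in sandy loam sprayed post-emergence at the one-leaf stage, 2–3 weeks after sowing, with WP or EC formulations in water plus 0.5% additive at 600 l/ha. Damage rated visually about 3 weeks later versus untreated controls (0% = like control, 100% = dead); suffixes a–c denote different doses.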

Zea mays (ZEAMX) = conditions: 20 g/ha; crop plant compatibility, effect vs untreated controls
In short: as §1

Brassica napus (BRSNW) = conditions: 20 g/ha, crop plant compatibility, in comparison to untreated controls
In short: as §1

| Pre-emergence action against TRZAS [1] [%] | Pre-emergence action against GLXMA (Glycine max (GLXMA)) [%] | Post-emergence action against TRZAS in % ([2]; 20 g/ha) [%] | Pre-emergence action against TRZAS in % ([1]; pre-emergence, 80 g/ha, in comparison to untreated controls) [%] | Pre-emergence action against ZEAMX (Zea mays (ZEAMX)) [%] | Pre-emergence action against BRSNW in % (Brassica napus (BRSNW)) [%] | Post-emergence action against TRZAS in % ([2]; 80 g/ha) [%] | Structure (SMILES) |
| --- | --- | --- | --- | --- | --- | --- | --- |
| 10 | 10 | 10 |  |  |  |  | O=C(O)COc1nn(-c2ncccc2F)c(-c2ccc(F)nc2)c1Br [Example I-17] |
| 10 |  | 20 | 20 | 10 | 10 |  | COC(=O)COc1nn(-c2ncccc2F)c(-c2cncc(F)c2)c1Br [Example I-16] |
|  |  |  |  |  |  | 20 | COC(=O)CNC(=O)[C@@H](C)Oc1nn(-c2ccccn2)c(-c2cncc(F)c2)c1Br [Example I-187] |
